Key:
Human SGLT2 (hSGLT2) = Human SGLT2 (hSGLT2) (Homo sapiens (Human), UniProt P31639); test: Inhibitory effects on human SGLT2 activities (14C-AMG uptake, sodium-dependent glucose transport assay); type: cell-based; conditions: hSGLT2-expressing CHO cells, 37° C. for 2 h, single determinations
Outline: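 CHO cells stably expressing hSGLT2 were preincubated 10 min at 37 °C in choline (Na+-free) buffer, then exposed 2 h at 37 °C to compound in Na+ uptake buffer with 8 μM 14C-AMG and 1 mM unlabeled AMG. Radioactivity was scintillation counted; IC50 came from nonlinear regression.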

Human SGLT1 (hSGLT1) = Human SGLT1 (hSGLT1) (Homo sapiens (Human), UniProt P13866); test: Inhibitory effects on human SGLT1 activities (14C-AMG uptake, sodium-dependent glucose transport assay); type: cell-based; conditions: 37° C. for 2 h, single determinations
Human SGLT1 (hSGLT1), sequence (P13866 whole entry): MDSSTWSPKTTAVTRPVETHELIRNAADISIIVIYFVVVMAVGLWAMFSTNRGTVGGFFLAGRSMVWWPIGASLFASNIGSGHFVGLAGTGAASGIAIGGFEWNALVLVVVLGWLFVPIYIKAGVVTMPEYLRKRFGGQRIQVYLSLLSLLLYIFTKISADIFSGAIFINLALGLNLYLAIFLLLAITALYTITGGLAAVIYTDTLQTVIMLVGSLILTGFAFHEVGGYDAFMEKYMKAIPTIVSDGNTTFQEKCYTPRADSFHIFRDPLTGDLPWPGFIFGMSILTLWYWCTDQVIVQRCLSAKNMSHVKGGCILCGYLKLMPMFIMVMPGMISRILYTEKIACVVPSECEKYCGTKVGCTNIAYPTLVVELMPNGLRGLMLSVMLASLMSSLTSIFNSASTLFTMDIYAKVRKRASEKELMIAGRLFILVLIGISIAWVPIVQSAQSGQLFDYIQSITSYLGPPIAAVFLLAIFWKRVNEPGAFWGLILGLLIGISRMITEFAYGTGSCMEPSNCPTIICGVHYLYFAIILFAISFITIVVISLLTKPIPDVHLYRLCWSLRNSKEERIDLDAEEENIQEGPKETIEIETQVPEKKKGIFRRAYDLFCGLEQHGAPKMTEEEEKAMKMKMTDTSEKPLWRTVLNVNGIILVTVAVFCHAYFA

Human SGLT2 (hSGLT2), sequence (P31639 whole entry): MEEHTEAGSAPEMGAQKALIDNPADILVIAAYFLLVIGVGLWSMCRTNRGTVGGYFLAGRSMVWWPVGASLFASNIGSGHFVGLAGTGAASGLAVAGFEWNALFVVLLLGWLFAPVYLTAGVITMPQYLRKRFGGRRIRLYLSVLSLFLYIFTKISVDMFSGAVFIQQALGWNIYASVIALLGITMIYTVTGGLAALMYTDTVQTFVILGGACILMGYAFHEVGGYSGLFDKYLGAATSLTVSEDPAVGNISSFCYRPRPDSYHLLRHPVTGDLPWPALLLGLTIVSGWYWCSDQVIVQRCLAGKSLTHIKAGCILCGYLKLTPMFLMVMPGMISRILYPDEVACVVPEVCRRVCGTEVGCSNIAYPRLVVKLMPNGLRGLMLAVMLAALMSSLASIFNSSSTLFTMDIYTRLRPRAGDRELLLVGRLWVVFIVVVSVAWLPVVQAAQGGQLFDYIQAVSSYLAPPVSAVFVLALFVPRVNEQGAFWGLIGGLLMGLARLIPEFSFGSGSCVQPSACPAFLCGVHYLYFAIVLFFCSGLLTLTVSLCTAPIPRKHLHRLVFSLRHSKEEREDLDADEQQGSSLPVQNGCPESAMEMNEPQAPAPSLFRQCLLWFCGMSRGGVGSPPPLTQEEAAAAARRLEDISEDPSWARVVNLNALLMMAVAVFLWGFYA

Row | Compound | IC50 (Human SGLT2 (hSGLT2)) [nM] | IC50 (Human SGLT1 (hSGLT1)) [nM]
1 | Cc1ccc(Cc2cc([C@@H]3O[C@H](CO)[C@@H](O)[C@H](O)[C@H]3O)c3c(c2C)OCO3)cc1 [Compound E061, (2R,3S,4R,5R,6S)-2-(Hydroxymethyl)-6-(7-methyl-6-(4-methylbenzyl)benzo[d][1,3]dioxol-4-yl)tetrahydro-2H-pyran-3,4,5-triol] | 1.7 | 27
2 | OC[C@H]1O[C@@H](c2cc(Cc3ccc(C4CCC4)cc3)c(Cl)c3c2OCCC3)[C@H](O)[C@@H](O)[C@@H]1O [Compound E062, (2S,3R,4R,5S,6R)-2-(5-Chloro-6-(4-cyclobutylbenzyl)chroman-8-yl)-6-(hydroxymethyl)tetrahydro-2H-pyran-3,4,5-triol] | 1.1 | 163
3 | COc1ccc(Cc2cc([C@@H]3O[C@H](CO)[C@@H](O)[C@H](O)[C@H]3O)c3c(c2C)OCO3)cc1 [Compound E063, (2R,3S,4R,5R,6S)-2-(Hydroxymethyl)-6-(6-(4-methoxybenzyl)-7-methylbenzo[d][1,3]dioxol-4-yl)tetrahydro-2H-pyran-3,4,5-triol] | 1.6 | 66.2
4 | CCc1ccc(Cc2cc([C@@H]3O[C@H](CO)[C@@H](O)[C@H](O)[C@H]3O)c3c(c2C)OCO3)cc1 [Compound E064, (2S,3R,4R,5S,6R)-2-(6-(4-Ethylbenzyl)-7-methylbenzo[d][1,3]dioxol-4-yl)-6-(hydroxymethyl)tetrahydro-2H-pyran-3,4,5-triol] | 1.1 | 38.3
5 | CCOc1ccc(Cc2cc([C@@H]3O[C@H](CO)[C@@H](O)[C@H](O)[C@H]3O)c3c(c2C)OCO3)cc1 [Compound E065, (2S,3R,4R,5S,6R)-2-(6-(4-Ethoxybenzyl)-7-methylbenzo[d][1,3]dioxol-4-yl)-6-(hydroxymethyl)tetrahydro-2H-pyran-3,4,5-triol] | 1.6 | 155

Source: patent US9340521B2, “Method for dual inhibition of SGLT1 and SGLT2 using diphenylmethane derivatives” (GREEN CROSS CORPORATION, priority 2013, dated 2016)
